Experimental data published in US10711314B2, “Methods for diagnosing IDH-mutant cell proliferation disorders” (Agios Pharmaceuticals, Inc., priority 2009, dated 2020).
Values joined by “and” are separate entries in the source; they are usually repeats but may differ in a detail not shown here. Equal values may be shown once. Read-outs that look alike come from different tables or passages of the source.

What was measured:
IDH1 R132H [1] = biological target: T1, IDH1 R132H (Homo sapiens, UniProt O75874, R132H); test: High throughput screening for IDH1 R132H inhibitors (NADPH/αKG, resazurin detection); type: biochemical; details: for IC50 Ratio (40/4): ratio of ICDH IC50 at 40 uM vs 4 uM NADPH
T1 construct: The resultant fragments for IDH1 (full length) and IDH2 (residues 40-452) were cloned into vector pET41a; made in house; host or cells: E. coli
Procedure: Assays were conducted in a volume of 76 ul assay buffer (150 mM NaCl, 10 mM MgCl2, 20 mM Tris pH 7.5, 0.03% bovine serum albumin) as follows in a standard 384-well plate: To 25 ul of substrate mix (8 uM NADPH, 2 mM αKG), 1 ul of test compound was added in DMSO. […] The reaction was incubated for 50 minutes at room temperature, then 25 ul of detection mix (30 uM resazurin, […]) was added and the mixture further incubated for 5 minutes at room temperature. The conversion of resazurin to resorufin was detected by fluorescent spectroscopy at Ex544 Em590 c/o 590.
(§1) The selectivity between wild type vs mutant could be >20-fold.

LDHa = LDHa (Homo sapiens, UniProt P00338); test: LDHa IC50 (Table 24a); type: biochemical
LDHb = LDHb (Homo sapiens, UniProt P07195); test: LDHb IC50 (Table 24a); type: biochemical
[2] = Enzyme kinetics of IDH1 wild-type and mutants in reduction of α-KG with NADPH; type: biochemical, human; details: for consumption of NADPH in reduction of α-KG: 40 ug/ml of enzyme
Procedure: In these reactions, substrate was varied while the cofactor was held constant at 500 uM. All reactions were performed in 50 mM potassium phosphate buffer, pH 6.5, 10% glycerol, 0.03% (w/v) BSA, 5 mM MgCl2, and 40 mM sodium hydrocarbonate. Reaction progress was followed by spectroscopy at 340 nM monitoring the change in oxidation state of the cofactor. Sufficient enzyme was added to give a linear change in absorbance for 10 minutes.

[3] = Enzyme kinetics of IDH1 wild-type and mutants in oxidative decarboxylation of isocitrate to α-KG; type: biochemical, human
Procedure: (§2) In these reactions, the substrate was varied while the cofactor was held constant at 500 uM. All reactions were performed in 150 mM NaCl, 20 mM Tris-Cl, pH 7.5, 10% glycerol, and 0.03% (w/v) BSA). Reaction progress was followed by spectroscopy at 340 nM monitoring the change in oxidation state of the cofactor. Sufficient enzyme was added to give a linear change in absorbance for 10 minutes.
All data was fit to the Hill equation by least-squares regression analysis.

[4] = Reduction of alpha-ketoglutarate with NADH by IDH1 wild-type and mutants; type: biochemical, human
Procedure: In order to evaluate the ability of the mutant enzymes to utilize NADH in the reduction of alpha-ketoglutarate, the following experiment was conducted.

IDH1 wt = biological target: T2, IDH1 wt (Homo sapiens, UniProt O75874); test: IDH1 wt assay (wild type vs mutant selectivity); type: biochemical
T2 construct: The resultant fragments for IDH1 (full length) and IDH2 (residues 40-452) were cloned into vector pET41a; made in house; host or cells: E. coli
Excerpt: as §1

[5] = Recombinant IDH1 enzyme assays (stopped-flow, 340 nm); type: biochemical, human; details: NADP+-dependent oxidative decarboxylation of isocitrate, vs wild-type
Procedure: 293T and the human glioblastoma cell lines U87MG and LN-18 were cultured in DMEM, 10% fetal bovine serum. Cells were transfected and selected using standard techniques. Protein expression levels were determined by Western blot analysis using IDHc antibody (Santa Cruz Biotechnology), IDH1 antibody (proteintech), MYC tag antibody (Cell Signaling Technology), and IDH2 antibody (Abcam). Metabolites were extracted from cultured cells and from tissue samples according to close variants of a previously reported method (Lu, W., Kimball, E. & Rabinowitz, J. D. J Am Soc Mass Spectrom 17, 37-50 (2006)), using 80% aqueous methanol (−80° C.) and either tissue scraping or homogenization to disrupt cells. […] For enzyme assays using recombinant IDH1 enzyme, proteins were produced in E. coli and purified using Ni affinity chromatography followed by Sephacryl S-200 size-exclusion chromatography. […] Chirality of 2HG was determined as described previously (Struys, E. A., Jansen, E. E., Verhoeven, N. M. & Jakobs, C. Clin Chem 50, 1391-5 (2004)). […] The IDH1 mutation status of each sample was determined using standard molecular biology techniques as described previously (Yan, H. et al. N Engl J Med 360, 765-73 (2009)). Metabolites were extracted and analyzed by LC-MS/MS as described above. […]

[6] = IDH1/2 activity assay, forward reaction (isocitrate and NADP+); type: biochemical, human; details: Oxidative (→NADPH), recombinant IDH1; for Ki: inhibition by aKG; for Km: read-out: KM,isocitrate
Procedure: (§3) All reactions were performed in standard enzyme reaction buffer (150 mM NaCl, 20 mM Tris-Cl, pH 7.5, 10 mM MgCl2 and 0.03% (w/v) bovine serum albumin). For determination of kinetic parameters, sufficient enzyme was added to give a linear reaction for 1 to 5 seconds. Enzymatic binding constants were determined using curve fitting algorithms to standard kinetic models with the Sigmaplot software package (Systat Software, San Jose, Calif.). For determination of kcat, enzyme was incubated with 5×Km of substrate and cofactor; consumption of NADPH or NADP was determined by a change in the OD340 over time. In both cases an extinction coefficient of 6200 M^−1 cm^−1 was used for NADPH.

[7] = IDH1/2 activity assay, reverse reaction (α-KG and NADPH); type: biochemical, human; details: reductive (→NADP^+)
Procedure: as §3

IDH1 wild-type = biological target: T3, IDH1 wild-type (Homo sapiens, UniProt O75874); test: Inhibition of oxidative decarboxylation of isocitrate to α-KG by IDH1 wild-type; type: biochemical; details: for effect on the oxidative decarboxylation of isocitrate by wild-type ICDH1: added in a titration series
T3 construct: The resultant fragments for IDH1 (full length) and IDH2 (residues 40-452) were cloned into vector pET41a; made in house; host or cells: E. coli Rosetta
Procedure: as §2
(§4) A well-known regulatory mechanism for control of metabolic enzymes is feedback inhibition, in which the product of the reaction acts as a negative regulator for the generating enzyme.
(§5) Final concentrations: Tris 7.5 20 mM, NaCl 150 mM, MnCl2 2 mM, Glycerol 10%, BSA 0.03%, NADP 0.5 mM, IDH1 wt 1.5 ug/ml, IDH1R132S 30 ug/ml, IDH1R132H 60 ug/ml, DL-isocitrate (5-650 uM).
A reaction containing the wild-type ICDH1, NADP, and α-KG was assembled (under conditions as described above) to which was added in a titration series either (R)-2-hydroxyglutarate or the reaction product of the ICDH1 […] mutant reduction of α-KG to 2-hydroxyglutarate.

IDH1 R132S = biological target: T4, IDH1 R132S (Homo sapiens, UniProt O75874, R132S); test: Inhibition of oxidative decarboxylation of isocitrate to α-KG by IDH1 R132S; type: biochemical
T4 construct: The resultant fragments for IDH1 (full length) and IDH2 (residues 40-452) were cloned into vector pET41a; made in house; host or cells: E. coli Rosetta
Procedure: as §2, §4, §5

IDH1 R132H [8] = biological target: T1, IDH1 R132H; test: Inhibition of oxidative decarboxylation of isocitrate to α-KG by IDH1 R132H; type: biochemical
Procedure: as §2, §4, §5

glioblastoma multiforme = glioblastoma multiforme patients; cited from earlier work
[9] = NADH 0.5 mM, alpha-Ketoglutarate 5 mM

T4 sequence (O75874 whole entry R132S, the tested form may be a part): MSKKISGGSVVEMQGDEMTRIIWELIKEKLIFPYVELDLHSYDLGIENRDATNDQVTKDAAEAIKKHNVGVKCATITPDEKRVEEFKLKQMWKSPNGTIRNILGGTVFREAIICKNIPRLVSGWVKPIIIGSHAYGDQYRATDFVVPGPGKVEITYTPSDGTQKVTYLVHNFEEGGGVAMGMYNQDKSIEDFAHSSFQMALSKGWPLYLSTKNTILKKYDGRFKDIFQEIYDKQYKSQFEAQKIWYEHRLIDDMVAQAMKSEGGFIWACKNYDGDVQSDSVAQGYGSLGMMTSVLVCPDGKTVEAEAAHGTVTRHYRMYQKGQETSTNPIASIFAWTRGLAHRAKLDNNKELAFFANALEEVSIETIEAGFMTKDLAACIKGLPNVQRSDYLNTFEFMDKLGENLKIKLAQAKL
T3 sequence (O75874 whole entry, the tested form may be a part): as the sequence (O75874 whole entry R132S, the tested form may be a part) above, with S132R counted along it
T1 sequence (O75874 whole entry R132H, the tested form may be a part): as the sequence (O75874 whole entry R132S, the tested form may be a part) above, with S132H counted along it
LDHb, sequence (P07195 whole entry, species assumed): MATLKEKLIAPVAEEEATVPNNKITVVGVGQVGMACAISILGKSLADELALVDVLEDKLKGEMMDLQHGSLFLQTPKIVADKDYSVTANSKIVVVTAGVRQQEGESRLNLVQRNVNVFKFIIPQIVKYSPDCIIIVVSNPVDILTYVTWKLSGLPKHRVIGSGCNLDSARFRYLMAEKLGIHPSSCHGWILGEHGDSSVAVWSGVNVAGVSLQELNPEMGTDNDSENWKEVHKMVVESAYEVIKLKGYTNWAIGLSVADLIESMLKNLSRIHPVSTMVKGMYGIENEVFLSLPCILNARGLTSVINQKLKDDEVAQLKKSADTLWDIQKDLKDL
T2 sequence (O75874 whole entry, the tested form may be a part): as the sequence (O75874 whole entry R132S, the tested form may be a part) above, with S132R counted along it

## Cc1cc(C(=O)O)ccc1-c1ccc(/C=C2/NC(=O)N(Cc3ccc(Br)cc3)C2=O)o1
IDH1 R132H [1]
  IC50 Ratio (40/4): 1.28
LDHa
  IC50: 33.8 µM
LDHb
  IC50: > 100 µM

## R132S: recombinant IDH1 Arg132Ser mutant with C-terminal His8 tag expressed in E. coli
[2]
  consumption of NADPH in reduction of α-KG: reduced α-KG and consumed NADPH
[2]; uncompetitive substrate inhibition by α-KG
  Ki: 24600 µM
[2]; α-KG
  Hill Constant: 0.479
[2]; α-KG varied, NADPH 500 uM, pH 6.5
  Vmax: 2.7 µmol/min/mg
[3]; Km for isocitrate compared to wild-type
  increase in Km: 20,000 fold
[3]; isocitrate varied, cofactor 500 uM
  Vmax: 95 µmol/min/mg
[3]; isocitrate, fit to Hill equation
  Hill Constant: 0.479
[4]; [9]
  consumption of NADH in the presence of alpha-ketoglutarate: demonstrated the ability to utilize NADH
[4]; consumption of NADH, individual determinations
  Umol/min/mg: 0.7183 Umol/min/mg and 0.6997 Umol/min/mg
[4]; consumption of NADH, individual determinations, NADH 0.5 mM, alpha-Ketoglutarate 5 mM
  Rate (ΔA/sec): 0.001117 ΔA/sec and 0.001088 ΔA/sec
[4]; consumption of NADH, mean
  Rate (ΔA/sec) Mean: 0.001103 ΔA/sec
  Umol/min/mg Mean: 0.709 Umol/min/mg

## Cc1ccc(C2=NN(c3ccccc3)C(c3cn(CCC(=O)O)nc3-c3ccccc3)C2)cc1 (stereo not shown) [drawing 31]
IDH1 R132H [1]
  IC50 Ratio (40/4): 3.38
LDHa
  IC50: 5.92 µM
IDH1 wt; 1x Km of NADPH
  IDH1wt IC50 @ 1x Km (uM): NO inhibition
LDHb
  IC50: 17.4 µM

## R132H: recombinant IDH1 Arg132His mutant with C-terminal His8 tag expressed in E. coli
[5]
  decrease in catalytic turnover: 1000 fold
[4]; [9]
  consumption of NADH in the presence of alpha-ketoglutarate: no measurable consumption of NADH

## O=C1NC(=S)S/C1=C\c1cccc(OC(=O)c2cccc(F)c2)c1
IDH1 R132H [1]
  IC50 Ratio (40/4): 1.15
LDHa
  IC50: 8.61 µM
LDHb
  IC50: > 100 µM

## Wt: recombinant wild type IDH1 with C-terminal His8 tag expressed in E. coli
[6]
  Ki: 610 µM
  kcat: 130000 s⁻¹
  Km: 57 µM
[7]; WT value estimated (est.)
  kcat(s^−1): ~7 (est.) s^−1
[2]
  consumption of NADPH in reduction of α-KG: unable to consume NADPH
[4]; [9]
  consumption of NADH in the presence of alpha-ketoglutarate: no measurable consumption of NADH

## R132C
[6]
  Ki: 61 µM
  kcat: 710 s⁻¹
  Km: 87000 µM
[7]; WT value estimated (est.)
  kcat: 550 s⁻¹
[7]; n/a indicates no measureable activity
  Km: 0.3 µM

## Cc1ccc(C2=NN(c3ccccc3)C(c3cn(CCC(=O)O)nc3-c3ccccc3)C2)cc1 (stereo not shown) [second example]
IDH1 wt; even at 100 uM, 1× Km of NADPH
  inhibition of IDH1 wt: no inhibition

## O=C(O)CC[C@@H](O)C(=O)O [(R)-2-hydroxyglutarate]
IDH1 wild-type
  effect on the oxidative decarboxylation of isocitrate by wild-type ICDH1: did not show any effect

## Cc1c(C=C2Sc3ccccc3C2=O)c(O)n2c(nc3ccccc32)c1C#N [first example]
IDH1 R132H [1]; IDH1R132H at 100× Km of NADPH
  IC50 when assayed at 100×Km: shifted significantly
IDH1 R132H [1]; IDH1R132H, presumably at 10× Km of NADPH
  IC50: 5.74 µM

## Cc1c(/C=C2\Sc3ccccc3C2=O)c(O)n2c(nc3ccccc32)c1C#N
IDH1 R132H [1]
  IC50 Ratio (40/4): 17.42
LDHa
  IC50: 25.4 µM
LDHb
  IC50: 64.1 µM

## O=C(O)CCC(O)C(=O)O (stereo not shown) [reaction product 2-HG, 2-hydroxyglutarate]
IDH1 wild-type
  effect on the oxidative decarboxylation of isocitrate by wild-type ICDH1: inhibit

## O=C(O)CCC(=O)C(=O)O [α-KG, α-ketoglutarate]
IDH1 wild-type
  Ki: 612 µM
IDH1 R132S
  Ki: 45.3 µM
IDH1 R132H [8]
  Ki: 28.6 µM

## O=C1NC(=S)S/C1=C/c1cccc(OCc2ccc([N+](=O)[O-])cc2)c1
IDH1 R132H [1]
  IC50 Ratio (40/4): 1.39
LDHa
  IC50: 12.8 µM
LDHb
  IC50: > 100 µM

## Cn1nnc2c(C(N)=O)ncn2c1=O [temozolomide]
Glioblastoma multiforme
  tolerability: well tolerated

## O=C(O)C(=O)C(C(=O)O)C(O)C(=O)O (stereo not shown) [Oxalomalate, oxalomalate]
IDH1 wild-type; IDH1 wt 1.5 ug/ml, competitive with isocitrate, NADP 0.5 mM, read-out: Oxalomalate Ki
  Ki: 955 µM
IDH1 R132S; IDH1R132S 30 ug/ml, competitive with isocitrate, NADP 0.5 mM, read-out: Oxalomalate Ki
  Ki: 510 µM
IDH1 R132S; R132S mutation compared with wt
  susceptibility to inhibition by oxalomalate: approximately a two-fold increase in susceptibility
IDH1 R132H [8]; IDH1R132H 60 ug/ml, competitive with isocitrate, NADP 0.5 mM, read-out: Oxalomalate Ki
  Ki: 951 µM
IDH1 R132H [8]; R132H mutation compared with wt
  susceptibility to inhibition by oxalomalate: essentially unaffected
